Where a name gives a salt, the structure may show the parent alone. Read-outs that look alike come from different tables or passages of the source.
Assays:
[1] = test system: activated platelets (125I-fibrinogen binding); experiment: Fibrinogen Binding (125I-fibrinogen binding to activated platelets); settings: read-out: Binding (IC50, concentration of compound which provides 50% fibrinogen binding); thrombin-stimulated platelets; 0.15 μM 125I-fibrinogen
Method: The compounds of the invention as identified above are evaluated for platelet aggregation inhibition activity as indicated by the percentage of nonaggregated platelets which are available for binding in accordance with the following procedure.
Briefly, 40 mL of PRP (obtained from Biological Specialty Corp., Lansdale, Pa.) are centrifuged at 120×g to remove contaminating red cells. Aspirin (50 μM) is added and the PRP is incubated at 37° C. for 20 minutes. […] Platelets are concentrated by a 300×g centrifugation (10 minutes) and the pellet is resuspended in 4 mL. of Tyrode's buffer. The platelet suspension (4 mL) is gel-filtered through a Sepharose-2B column (50 mL bed volume). […] The binding reaction is performed in polystyrene tubes (final volume […]). Reagents are added in the following order: 80 mL of Tyrode's buffer, 50 mL of CaCl2 (final concentration (f.c.) […]) and 50 mL of thrombin (f.c. 0.1 unit/mL). The platelet suspension is then added and the mixture is allowed to incubate at room temperature for 2 minutes. Hirudin (50 mL, f.c. 0.5 unit/mL) is immediately added to prevent the catalytic activity of thrombin. […] The mixture is incubated for 10 minutes at room temperature. To terminate the binding reaction the platelets are sedimented (10,000×g for 3 minutes) through silicone oil (3:1 hi-phenol 550/methyl silicone 200, W. F. Nye, Inc., New Bedford, Mass.), in an Eppendorf centrifuge.
The amount of platelet radioactivity measured in the presence of nonlabeled fibrinogen (4 mg/mL) is considered the nonspecific binding. All samples are repeated in triplicate.
Positive percentages of fibrinogen binding indicates higher activity for inhibiting platelet aggregation since only non-aggregated or free platelets are available for fibrinogen binding.

[2] = test system: platelets (gel-filtered platelet rich plasma); experiment: Platelet Aggregation Inhibition Activity (agonist thrombin or ADP, light transmission); type: cell-based; settings: for inhibition at 20 µM: Homo sapiens, thrombin or ADP agonist, read-out: Aggregation (percentage increase in light transmission)
Method: The percentage of platelet aggregation is calculated as an increase in light transmission of drug treated platelet concentrate versus control treated platelet concentrate. Blood is obtained from drug free, normal donors into tubes containing 0.13M sodium citrate (two sources are routinely used: platelet concentrate obtained from Biological Specialty Corp., Lansdale, Pa. or whole blood obtained from donors). Platelet rich plasma (PRP) is collected by centrifugation of the concentrate or whole blood at 130×g for 15 minutes at 25° C. The PRP (5 mL) is gel filtered through Sepharose 2B (bed volume 50 mL), and the platelet count is adjusted to 2×10^7 platelets per sample. The following constituents are added to a siliconized cuvette: 250 μL of the concentrated platelet filtrate, 100 μL of Tyrode's buffer (0.14M NaCl, 0.0027M KCl, 0.012M NaHCO3, 0.76 mM Na2 HPO4, 0.0055M glucose and 2 mg/mL BSA pH 7.4), 50 μL of 2 mM calcium and test drug (50 mL).
Aggregation is monitored in a dual channel Chrono-log Aggregometer for three minutes following the addition of agonist (thrombin 50 μL of 1 unit/mL, or ADP 50 μL of 100 μM). The final assay volume is 500 μL. The reaction takes place at 37° C. The peak aggregation response is calculated as the increase in light transmission units over a three minute period. The difference of the increase in light transmission between control and drug treated platelets is then expressed as a percent of the nondrug treated controls. […] A percentage increase in light transmission indicates platelet aggregation inhibition activity for the tested compound.

[3] = read-out: Aggregation (IC50, concentration at which the increase in light transmission equals 50%), thrombin or ADP agonist, 37° C., three minutes

Structure (SMILES) | IC50 [1] [µM] | IC50 [2, 3] [µM] | IC50 ([2]; read-out: Aggregation (IC50, concentration at which the increase in light transmission equals 50%)) [µM] | inhibition at 20 µM [2] [%]
Cc1ccc(-c2csc(-n3ncc(C(=O)NCCCN)c3C(F)(F)F)n2)cc1 [Example 123] | 17 | 17 | – | –
NCCCNC(=O)c1cnn(-c2nc(-c3cccc(C(F)(F)F)c3)c(Br)s2)c1C(F)(F)F [Example 124] | 5.5 | 3.2 | – | –
N=C(N)NCCCNC(=O)c1cnn(-c2nc(-c3cccc(C(F)(F)F)c3)cs2)c1C(F)(F)F [Example 128, 2-[4-(3-Guanidinopropylcarbamoyl)-5-(trifluoromethyl)-pyrazol-1-yl]-4-(3-trifluoromethylphenyl)thiazole Nitrate] | 17.5 | – | 118 | –
FC(F)(F)c1cccc(-c2csc(-n3ncc(COCCCN4CCCCC4)c3C(F)(F)F)n2)c1 [Example 136, 2-[4-[3-(N-Piperidino)propoxymethyl]-5-(trifluoromethyl)pyrazol-1-yl]-4-(3-trifluoromethylphenyl)thiazole Oxalate] | 17 | 21 | – | –
CCN(CC)CCCNC(=O)c1ccc(-c2csc(-c3ccc(C(F)(F)F)cc3)n2)cc1 [Example 150] | 4.4 | 5 | – | –
CCN(CC)CCCNC(=O)c1ccc(-c2csc(-c3ccc(C)cc3)n2)cc1 [Example 151] | 19 | 16.7 | – | –
CCN(CC)CCCNC(=O)c1ccc(-c2csc(-c3ccc(C(C)(C)C)cc3)n2)cc1 [Example 153] | 4.3 | 15.3 | – | –
Cc1ccc(-c2nc(-c3ccc(C(=O)NCCCN(C)C)cc3)cs2)cc1 [Example 154] | 10 | 7.2 | – | –
CN(C)CCCNC(=O)c1ccc(-c2csc(-c3ccc(C(C)(C)C)cc3)n2)cc1 [Example 156] | 12 | 14.2 | – | –
O=C(NCCN1CCCCC1)c1ccc(-c2csc(-c3ccccc3)n2)cc1 [Example 158] | 5.2 | 8.7 | – | –
Cc1ccc(-c2nc(-c3ccc(C(=O)NCCCN4CCCC4=O)cc3)cs2)cc1 [Example 170] | 10.8 | – | – | 90
CN(C)CCNC(=O)c1ccc(-c2csc(-c3ccc(C(F)(F)F)cc3)n2)cc1 [Example 174] | 1.8 | – | – | 85
CCN(CC)CCNC(=O)c1ccc(-c2csc(-c3ccc(C)cc3)n2)cc1 [Example 176] | 2.5 | 4 | – | –
CCN(CC)CCCCNC(=O)c1ccc(-c2csc(-c3ccc(Cl)cc3)n2)cc1 [Example 179] | 2.7 | 5.8 | – | –
NCCNC(=O)c1ccc(-c2csc(-c3ccc(C(F)(F)F)cc3)n2)cc1 [Example 196] | 6 | 3.7 | – | –
O=C(NCCCBr)c1ccc(-c2csc(-c3ccc(C(F)(F)F)cc3)n2)cc1 [Example 209] | 7.8 | 5.5 | – | –
O=C(NCCCN1CCCCC1)c1ccc(-c2csc(-c3ccc(Cl)cc3)n2)cc1 [Example 211] | 3.4 | 5 | – | –
O=C(NCCCNC1CCCCC1)c1ccc(-c2csc(-c3ccc(Cl)cc3)n2)cc1 [Example 213] | 9.2 | 10 | – | –
CCCNCCCNC(=O)c1ccc(-c2csc(-c3ccc(C(F)(F)F)cc3)n2)cc1 [Example 221] | 5.8 | – | – | 85
CCCCNCCCNC(=O)c1ccc(-c2csc(-c3ccc(Cl)cc3)n2)cc1 [Example 224] | 3.3 | 6.1 | – | –
CCCCNCCCNC(=O)c1ccc(-c2csc(-c3ccc(OC)cc3)n2)cc1 [Example 226] | 4.3 | 3.8 | – | –

From patent US5342851A, “Substituted thiazole derivatives useful as platelet aggregation inhibitors” (McNeil-PPC, Inc., priority 1992, dated 1994)
